The subject of one data set is PA1 cells. Kind of data set: Sulforhodamine B (SRB) growth assay, attached 2D. It is filed as cell-based, human. Particulars: 10 nM, 3 days. Background: In SRB staining, fixed cells bind dye roughly in proportion to their protein.
Data set [1] in a line: Overall toxicity of daily i.p. BMP9 (body weight, kidney and liver function tests). It is filed as in vivo. The settings on record: up to 3 weeks. How it is done: All animal studies were performed in accordance with the Institutional Animal Care and Use Committee at the University of Alabama Birmingham. Female SCID mice (Key resources table) at 5-7 weeks of age were housed under pathogen-free conditions at the Animal Research Facility at UAB. 1.5×10^6 GFP-luciferase SK-OV3 cells or 3×10^6 GFP-luciferase expressing PA1 cells were intraperitoneally injected. Mice were monitored daily, with girth and weight measurement taken twice a week. Tumor progression was tracked weekly using the IVIS Lumina III In vivo Imaging System (Caliper Life Sciences, MA) at UAB's Small Animal Imaging Facility. rhBMP9 was administered at the time of tumor cell injection followed by daily intraperitoneal (i.p.) injections of 1 mg/mL in 4 mM HCl+PBS+DI water (Vehicle), to achieve a final 5 mg/kg dose. For metastasis and tumor growth analysis, mice were euthanized between 21-50 days depending on the cell line. At necropsy, ascites, if present, were collected and volumes measured when possible, tumor weights in the omentum and other organs were recorded and collected when possible. For survival studies, mice that reached end-point criteria, including continued weight loss, respiratory trouble and permanent recumbency were euthanized. […]

A further data set has as its system A2780ip2 cells. The data set can be described thus: Cell survival under anchorage independence, A2780ip2. It is filed as cell-based, human. Particulars: dose and time course. The protocol:
(§1) For Live/Dead analysis under anchorage independence, 1,000 cells were seeded in 96-well hydrogel-coated ultra-low attachment (ULA) plates (Corning #4515) for times indicated. Growth factor treatment was done under low serum 2.5% FBS condition (Cells were plated in 10% FBS to allow spheroid formation before beginning treatment). Cells were then stained with 2 μM Calcein-AM and 4 μM Ethidium-homodimer for 30 min before imaging. z-stacked images were obtained using the Zeiss LSM700 Confocal microscope (Microscopy and Flow Cytometry Core, University of South Carolina) and NIKON A1 Confocal microscope (UAB High Resolution Imaging Facility). Fluorescent quantification was performed using ImageJ Fiji software to calculate the Corrected Total Cell Fluorescent (CTCF)=Integrated Density−(Area of selected cell×Mean fluorescence of background readings) per spheroid.

The subject of a further data set is SOX2 promoter. The data set can be described thus: Chromatin immunoprecipitation (ChIP) at SOX2 promoter regions. It counts as cell-based, human. How it is done:
ChIP was carried out using a modified version of a previously described protocol (Medeiros et al., 2009). Cells were grown to 80% confluency in 150 mm culture dishes. Cells were fixed at room temperature in 1% Paraformaldehyde solution (dilute 8% PFA in serum free media to get 1%) and rocked for 10 minutes. 10×Glycine was added to the plate and allowed to sit for 5 minutes at room temperature. Cells were scraped down and cell suspension were transferred to a cold centrifuge tube for centrifugation at 720 RCF at 4° C. for 10 minutes. Cells were rinsed with 1X Phosphate buffer saline and centrifugation repeated. Cell pellet was next resuspended in lysis buffers described in (Medeiros et al., 2009) to obtain nuclei pellet. This was followed by chromatin sonication, using QSonica sonicator (model CL-188) for four cycles (30% amplitude for 15 secs ON and 30 secs OFF) to obtain DNA fragments with a length from 150 to 300 bp. 1/10th of the supernatant was stored as input control. ChIP was performed using Protein A magnetic beads (Dynabeads, Invitrogen #10001D) to couple […] ChIP-grade antibodies for SMAD1, SMAD3, H3K27me3, H3K4me3, or rabbit IgG antibody overnight at 4 °C. DNA was purified using the PureLink Quick PCR Purification kit (Thermo Fisher Cat #: K310001) and enrichment of DNA fragments analyzed via relative quantitative RT-PCR (qPCR) using ChIP primers (see Table 2) to specific locations. Negative and positive control regions were included in all analysis.

The next data set concerns HEYT30 cells. The data set can be described thus: Cell survival under anchorage independence, HEYT30. It counts as cell-based, human. The protocol:
as §1

In the next data set the test system is OCT4 or NANOG. The data set can be described thus: qRT-PCR of OCT4 and NANOG under 3D condition. Particulars: PA1 cells. It counts as cell-based, human. The protocol:
(§2) Lysate and RNA preparation: 100,000-300,000 cells were seeded in a poly-HEMA coated 6-well plate for indicated times in full serum unless indicated otherwise. Cells were collected by centrifugation and lysed with trizol for RNA extraction or direct 2× lysis buffer for protein lysates.
For orientation: In qPCR the cycle at which signal appears reflects the starting amount.

The next data set deals with HEY-T30 cells. The data set can be described thus: Flow cytometry, Annexin V / PI apoptosis. It is filed as cell-based, human. The settings on record: 3D, 48 hours; 10 nM BMP9, 300 nM paclitaxel or combination. The protocol:
700,000 cells were seeded in 60 mm poly-hema coated culture dishes, followed by incubation with 300 nM paclitaxel and 10 nM BMP9 alone or in simultaneous combination for 48 hours. Cells were centrifuged and resuspended in 1×binding buffer, followed by incubation with Annexin V and PI according to the manufacturer's procedure manual. The stained cell suspension was added to FACS tubes containing 200 μl 1×binding buffer and measured by BD LSRFortessa flow cytometer. The data were analyzed using BD FACSDiva (Becton Dickinson, NJ, USA) software. Annexin V-positive and PI-negative cells were considered to be in the early apoptotic phase, Annexin V-negative and PI-positive cells were considered to be in the necrosis phase, cells having positive staining for both Annexin-V and PI were considered to undergo late apoptosis and cells negative for Annexin V and PI were considered to be live cells.
In general terms: Flow cytometry measures light scatter and fluorescence of single cells or particles in a stream.

In a further data set the test system is SOX2. The data set can be described thus: SOX2 expression by Western blot / qRT-PCR in cancer cells. It counts as cell-based, human. How it is done: as §2
Xenograft data were analyzed using parametric statistics as described in the legends. Survival curves were analyzed with log-rank statistics. In vitro experiments were analyzed using parametric statistics (ANOVA global test with Dunnett's/Sidak multiple comparison test as post-hoc tests as applicable and described in legend) and presented as the mean±SEM. All real time PCR's are relative semi quantitative RT-PCR's (hereby referred to as qRT-PCR) and are a combined quantitation of a minimum of 3 independent biological trials assayed in triplicate with biological replicates represented as individual scatter dots in the graphs or as indicated in legends. In all cases, statistical significance was set at a threshold of p<0.05. All statistical analyses were conducted with GraphPad Prism Software Ver. 9.0 and specific statistical test information described in figure legends.

Experimental for PA1 cells: Growth of cells was monitored by seeding 1,000 cells per well in a 96 well plate, followed by treatment with 10 nM BMP2/9 for indicated times. At endpoint, medium was shaken out from plates, followed by addition of cold 10% trichloroacetic acid in each well, and incubation at 4° C. for 10 minutes. Five sequential wash steps were performed by complete immersion in water and shake out of the water from the plate. Next, 0.4% sulforhodamine B (SRB) in 1% acetic acid was added to each well and incubated at room temperature for 10 minutes. Five washed were done by complete immersion in 1% acetic acid followed by complete removal of the remaining wash. Plates were air dried overnight. Finally, 200 mL of 20 mM Tris pH 10 (unbuffered) was added to each well and plate rocked on a rotary shaker for 1-2 hours and absorbance measured at 570 nm with a plate reader (Vichai and Kirtikara, 2006).

For “BMP9: recombinant human bone morphogenetic protein 9 (BMP9/GDF2), TGF-β family ligand”, the cell growth entry with PA1 cells is listed as “did not alter”. The “overall toxicity (body weight, kidney and liver function tests)” value in data set [1] is “no notable toxicity”. In the data set with A2780ip2 cells, the “decrease in percentage live cells” value was 30%. The “SMAD1 binding at sites p1 and p6 (ChIP)” value in the data set with SOX2 promoter (1 h treatment) is reported as “significant enrichment”. For the same substance, in the data set on SOX2 promoter (PA1, 1 hour rhBMP9), the “histone H3K27me3 on the SOX2 promoter (ChIP)” value is listed as “significantly enriched”. In addition, the “reduction in percentage live cells” value was 63% with HEYT30 cells (10 nM); “about 35%” with HEYT30 cells (1 and 5 nM). Further, the “effect on OCT4 or NANOG” value with OCT4 or NANOG is on record as “did not have any significant effect”. Further, in the data set with HEY-T30 cells, the apoptosis in cells was 6.8%. Moreover, the “SOX2 expression in other cancer types” value with SOX2 (A549, BON-1, H727 cells, 24 hours) is on record as “downregulated”. In the data set on SOX2 (EOC15 and AF68, anchorage-independent, 48 hours), the “SOX2 in patient ascites-derived tumor cells” value is given as “downregulated”. Also, the “anchorage-independence-induced increases in SOX2” value in the data set with SOX2 (OVCAR4, OVCA420, OVCA433 cells, 3D) is given as “effectively suppressed”. Moreover, in the data set with SOX2 (PA1 and OVCAR3, indicated doses, 24 h), the “dose-response of SOX2 protein” value was “dose-dependent repression”. In addition, the “SOX2 by qRT-PCR in anchorage-independent conditions” value with SOX2 (PA1 cells, 3D, 24 hrs) is on record as “downregulation”. Also, the “reduction in SOX2 expression under attached growth conditions” value with SOX2 (several cell lines incl. OVCAR3 and SKOV3, 10 nM, 24 hours) is listed as “significant”.
